Assay results as given in the supplement of paper PMC10331698.
± gives the standard deviation of the averaged measurements.

Experiments:
Assay in all cases: level (log10 ratio to DMSO vehicle control); higher = higher biomarker level / cell amount than vehicle control
[1] = compound: O=C(O)C(F)(F)C(F)(F)C(F)(F)OC(F)(F)F [Perfluoro(4-methoxybutanoic) acid] (in DMSO)
In short: (§1)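 Readouts were ELISA for biomarkers, sulforhodamine B for cell amount and Alamar Blue for PBMC viability/proliferation. These were taken after BioMAP Diversity Plus human primary cell co-cultures were given test substances 1 h before cytokine or activator stimulation and incubated 24 h (MyoF 48 h; BT 72 h, or 6 d for secreted IgG). Each well was divided by the mean of 8 same-plate DMSO wells, log10 transformed, and blinded duplicates were averaged.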

[2] = compound: O=C(O)C(F)(OC(F)(F)C(F)(F)C(F)(F)F)C(F)(F)F [Ammonium perfluoro-2-methyl-3-oxahexanoate] (in Water)
In short: as §1

[3] = compound: C=C(C)C(=O)OCCC(F)(F)C(F)(F)C(F)(F)C(F)(F)C(F)(F)C(F)(F)C(F)(F)C(F)(F)F [8:2 Fluorotelomer methacrylate] (in DMSO)
In short: as §1

[4] = compound: O=S(=O)(O)C(F)(F)C(F)(F)OC(F)(F)C(F)(F)F [Perfluoro(2-ethoxyethane)sulfonic acid] (in DMSO)
In short: as §1

[5] = compound: O=C(O)C(F)(OC(F)(F)C(F)(OC(F)(F)C(F)(OC(F)(F)C(F)(F)C(F)(F)F)C(F)(F)F)C(F)(F)F)C(F)(F)F [Perfluoro-(2,5,8-trimethyl-3,6,9-trioxadodecanoic)acid] (in DMSO)
In short: as §1

Perfluorononanoic acid = compound: O=C(O)C(F)(F)C(F)(F)C(F)(F)C(F)(F)C(F)(F)C(F)(F)C(F)(F)C(F)(F)F [Perfluorononanoic acid] (in DMSO)
In short: as §1

[6] = compound: O=S(=O)(O)C(F)(F)C(F)(F)C(F)(F)C(F)(F)C(F)(F)C(F)(F)C(F)(F)F [Perfluoroheptanesulfonic acid] (in DMSO)
In short: as §1

| Test System | level (log10) ([1]; 6700 nM) | level (log10) ([1]; 20000 nM) | level (log10) ([1]; 60000 nM) | level (log10) ([2]; 6700 nM) | level (log10) ([2]; 20000 nM) | level (log10) ([2]; 60000 nM) | level (log10) ([3]; 6700 nM) | level (log10) ([3]; 20000 nM) | level (log10) ([4]; 6700 nM) | level (log10) ([4]; 20000 nM) | level (log10) ([4]; 60000 nM) | level (log10) ([5]; 1100 nM) | level (log10) ([5]; 3300 nM) | level (log10) ([5]; 10000 nM) | level (log10) (Perfluorononanoic acid; 6700 nM) | level (log10) (Perfluorononanoic acid; 20000 nM) | level (log10) ([6]; 1500 nM) | level (log10) ([6]; 4400 nM) | level (log10) ([6]; 13000 nM) | level (log10) ([6]; 40000 nM) |
| --- | --- | --- | --- | --- | --- | --- | --- | --- | --- | --- | --- | --- | --- | --- | --- | --- | --- | --- | --- | --- |
| KF3CT:SRB | -0.004 ± 0.0014 | 0.0015 ± 0.0021 | -0.0015 ± 0.0064 | -0.004 | -0.005 ± 0.0014 | -0.0015 ± 0.005 | -0.003 | 0.004 ± 0.0042 | -0.0065 ± 0.00071 | -0.0035 ± 0.0035 | 0.007 ± 0.0099 | 0.0005 ± 0.011 | 0.0025 ± 0.016 | -0.008 ± 0.0014 | -0.011 ± 0.0057 | -0.0215 ± 0.0021 | 0.0015 ± 0.005 | -0.0015 ± 0.0064 | -0.0005 ± 0.00071 | -0.0005 ± 0.005 |
| KF3CT:TIMP-2 | -0.0015 ± 0.005 | 0.007 ± 0.0042 | 0.008 ± 0.0071 | -0.0005 ± 0.037 | -0.002 ± 0.025 | 0.022 ± 0.027 | -0.018 ± 0.014 | -0.0335 ± 0.033 | 0.0035 ± 0.0092 | 0.01 | 0.0155 ± 0.005 | -0.0075 ± 0.013 | -0.0105 ± 0.011 | -0.001 ± 0.017 | -0.074 ± 0.027 | -0.002 ± 0.045 | -0.0225 ± 0.013 | -0.0035 ± 0.03 | -0.0195 ± 0.016 | 0.0105 ± 0.0021 |
| KF3CT:uPA | -0.0065 ± 0.005 | -0.0175 ± 0.019 | -0.0055 ± 0.011 | -0.0275 ± 0.043 | -0.009 ± 0.0099 | -0.0175 ± 0.019 | -0.0095 ± 0.00071 | -0.0205 ± 0.012 | 0.013 ± 0.011 | 0.006 ± 0.021 | 0.0055 ± 0.022 | 0.01 | 0.0045 ± 0.021 | 0.0075 ± 0.005 | 0.0005 ± 0.018 | 0.009 ± 0.011 | 0.008 | -0.0165 ± 0.00071 | -0.0195 ± 0.005 | -0.0055 ± 0.0021 |
| MyoF:CD106/VCAM-1 | -0.0175 ± 0.0021 | -0.0205 ± 0.0092 | -0.018 ± 0.016 | 0.0105 ± 0.033 | 0.012 ± 0.011 | -0.011 ± 0.0099 | -0.0125 ± 0.012 | 0.002 ± 0.011 | 0.006 ± 0.013 | -0.0095 ± 0.015 | 0.013 ± 0.013 | 0 ± 0.0028 | -0.0035 ± 0.0092 | 0.013 ± 0.0099 | -0.0475 ± 0.025 | -0.024 ± 0.016 | -0.01 ± 0.0057 | -0.0015 ± 0.005 | -0.0055 ± 0.015 | 0.0145 ± 0.0021 |
| MyoF:CXCL8/IL-8 | -0.0145 ± 0.018 | -0.004 ± 0.0042 | 0.01 ± 0.0028 | -0.0355 ± 0.032 | -0.0385 ± 0.011 | -0.045 ± 0.011 | 0.0095 ± 0.025 | 0.004 ± 0.0085 | 0.0095 ± 0.037 | 0.0225 ± 0.03 | 0.03 ± 0.024 | 0.0475 ± 0.077 | 0.005 ± 0.0028 | -0.006 ± 0.016 | -0.03 ± 0.079 | 0.0445 ± 0.044 | 0.0195 ± 0.011 | 0.022 ± 0.011 | 0.026 | 0.032 ± 0.023 |
| MyoF:Collagen I | -0.0165 ± 0.0078 | -0.013 ± 0.0028 | -0.011 ± 0.0071 | -0.0135 ± 0.061 | -0.024 ± 0.024 | -0.027 ± 0.031 | -0.0335 ± 0.015 | -0.0125 ± 0.0035 | 0.016 ± 0.011 | -0.0025 ± 0.015 | 0.039 ± 0.014 | -0.0495 ± 0.026 | -0.0365 ± 0.0021 | -0.03 ± 0.0071 | -0.017 ± 0.059 | -0.101 ± 0.027 | -0.0035 ± 0.0021 | 0.0135 ± 0.005 | -0.009 ± 0.0085 | 0.0105 ± 0.011 |
| MyoF:Collagen III | -0.006 ± 0.0071 | 0.0015 ± 0.015 | 0.008 ± 0.0057 | 0.0135 ± 0.0035 | 0.006 ± 0.023 | -0.035 ± 0.034 | -0.029 ± 0.017 | -0.005 ± 0.028 | -0.0035 ± 0.0092 | -0.005 ± 0.0071 | 0.0105 ± 0.012 | -0.008 ± 0.021 | 0.0155 ± 0.00071 | 0.006 | -0.004 ± 0.0071 | -0.0355 ± 0.018 | -0.0035 ± 0.022 | 0.002 ± 0.0085 | -0.0195 ± 0.013 | -0.006 ± 0.025 |
| MyoF:Collagen IV | -0.0165 ± 0.0021 | -0.0125 ± 0.0035 | 0.016 ± 0.027 | -0.013 ± 0.0057 | 0.0045 ± 0.011 | 0.0105 ± 0.012 | -0.0265 ± 0.015 | -0.027 ± 0.025 | 0.0015 ± 0.0021 | 0.004 ± 0.016 | 0.0315 ± 0.04 | 0.034 ± 0.054 | 0.0255 ± 0.037 | 0.0225 ± 0.025 | 0.0215 ± 0.022 | 0.221 ± 0.063 | 0.013 ± 0.018 | -0.017 ± 0.0057 | -0.012 ± 0.013 | 0.0025 ± 0.023 |
| MyoF:Decorin | -0.024 ± 0.041 | 0.0175 ± 0.079 | -0.0075 ± 0.063 | -0.048 ± 0.023 | -0.02 ± 0.0085 | -0.024 ± 0.013 | -0.0145 ± 0.0021 | -0.004 ± 0.0057 | -0.0085 ± 0.0092 | 0.001 ± 0.013 | 0.0355 ± 0.005 | 0 ± 0.013 | -0.0065 ± 0.013 | 0.012 | 0.0125 ± 0.028 | 0.0545 ± 0.0035 | -0.0075 ± 0.015 | -0.006 ± 0.0042 | 0.009 ± 0.0014 | 0.0615 ± 0.011 |
| MyoF:MMP-1 | -0.0165 ± 0.0078 | -0.0245 ± 0.026 | 0.0205 ± 0.06 | -0.0025 ± 0.0064 | 0.0185 ± 0.0092 | -0.0095 ± 0.0064 | -0.015 ± 0.02 | -0.0075 ± 0.0021 | -0.005 ± 0.014 | -0.0365 ± 0.00071 | 0.0155 ± 0.037 | -0.048 ± 0.0014 | -0.0475 ± 0.012 | -0.03 ± 0.027 | -0.025 ± 0.031 | 0.0665 ± 0.0021 | 0.0105 ± 0.039 | -0.0055 ± 0.015 | -0.03 ± 0.0085 | 0.01 ± 0.044 |
| MyoF:PAI-I | -0.003 ± 0.0042 | -0.0045 ± 0.0064 | 0.0005 ± 0.00071 | -0.0005 ± 0.005 | -0.0025 ± 0.0064 | -0.019 ± 0.011 | 0.0005 ± 0.0078 | -0.013 ± 0.0071 | -0.0005 ± 0.00071 | -0.009 ± 0.013 | 0.0015 ± 0.011 | 0.005 ± 0.021 | 0.006 ± 0.0085 | 0.0085 ± 0.016 | -0.01 ± 0.028 | 0.0105 ± 0.03 | 0.008 ± 0.0085 | 0.0085 ± 0.00071 | 0.005 ± 0.0028 | 0.019 ± 0.023 |
| MyoF:SRB | -0.0075 ± 0.0035 | -0.008 ± 0.0028 | -0.0005 ± 0.00071 | 0.0095 ± 0.0035 | 0.013 ± 0.013 | 0.0085 ± 0.0035 | 0.0025 ± 0.0064 | -0.0015 ± 0.005 | -0.005 ± 0.0071 | -0.005 | -0.0015 ± 0.0064 | -0.0065 ± 0.005 | 0.008 ± 0.018 | 0.0085 ± 0.015 | 0.0025 ± 0.0064 | -0.0155 ± 0.0021 | -0.009 ± 0.0099 | 0.002 ± 0.0028 | 0.002 ± 0.0014 | -0.007 ± 0.0042 |
| MyoF:TIMP-1 | -0.0155 ± 0.057 | -0.0185 ± 0.074 | -0.0135 ± 0.071 | -0.0395 ± 0.0092 | -0.0635 ± 0.015 | -0.068 ± 0.0028 | 0.0115 ± 0.08 | 0.0185 ± 0.026 | 0.003 ± 0.0014 | 0.036 ± 0.028 | 0.0775 ± 0.025 | 0.007 ± 0.0014 | 0.0155 ± 0.013 | 0.022 ± 0.024 | 0.0025 ± 0.03 | -0.034 ± 0.033 | 0.021 ± 0.04 | 0.013 ± 0.061 | 0.033 ± 0.054 | 0.11 ± 0.0099 |
